Measured values: US12144791B2, “KRAS agonists, pharmaceutical compositions, and uses in managing cancer” (Emory University, priority 2019, dated 2024)

Columns and labels:
[1] = Single-dose maximum tolerated dose (MTD); format: in vivo
Experimental: To define the appropriate doses of KRA-533 for in vivo experimentation, standard single-dose maximum tolerated dose (MTD) was determined. Nu/Nu nude mice were treated with a single dose of 150, 300 or 400 mg/kg i.p., followed by toxicity observations. […] Based on these findings, mice might die mainly from liver and kidney damage at a single 400 mg/kg dose. Thus, the single dose MTD of KRA-533 ranges from 300 to 400 mg/kg. One tenth of single-dose MTD was contemplated (˜30-40 mg/kg) for continuous treatment, e.g., between 10 and 30 mg/kg/day.

KRAS G12D = KRAS G12D (Homo sapiens, UniProt P01116, G12D); assay: In vitro cell-free GDP-GTP exchange, KRAS G12D; format: biochemical; conditions: with GEF (RASGRP1) and GAP (RASA1), 25° C., 60 min
Experimental: (§1) GTPγS, purified GFP (RASGRP1, 180 nM) and GAP (RASA1, 180 nM) at 25° C. in the presence or absence of increasing concentrations of KRA-533.
(§2) To test whether KRA-533 directly binds to KRAS, a thermal shift assay was employed. […] To further assess whether KRA-533 activates KRAS directly, an in vitro cell-free GDP-GTP exchange experiment was carried out. Purified WT, G12C, G12D or G13D mutant KRAS proteins were incubated with purified GEF (RASGRP1) and GAP (RASA1) proteins in reaction buffer containing [γ-35S]-GTP in the absence or presence of increasing concentrations of KRA-533 at 25° C. for 60 min. KRAS activity was quantified by liquid scintillation counting. […] These findings indicate that KRA-533 not only activates WT KRAS but also has the capacity to further enhance KRAS activity of mutant KRAS.

KRAS K117A = biological target: T1, KRAS K117A (Homo sapiens, UniProt P01116, K117A); assay: Thermal shift assay, purified KRAS K117A; format: binding
T1 construct: made in house
Experimental: Melting temperature (Tm) values of DMSO control and 15 μM KRA-533 are shown.
To further test this intracellularly, GFP-tagged WT, S17A, K117A and AA KRAS mutants were exogenously transfected into A549 cells. […] Activities of exogenous GFP-tagged WT and KRAS mutants were analyzed by Western blot using GFP antibody.

KRAS G13D [2] = biological target: T2, KRAS G13D (Homo sapiens, UniProt P01116, G13D); assay: In vitro cell-free GDP-GTP exchange, KRAS G13D; format: biochemical; conditions: with GEF (RASGRP1) and GAP (RASA1), 25° C., 60 min
Experimental: as §1, §2

[3] = tested on: lung tumors of LSL-KRASG12D LKB1fl/fl (KL) mice; assay: Genetically engineered LSL-KRASG12D LKB1fl/fl (KL) mouse model; format: in vivo
Experimental: After administration of adenovirus Cre recombinase in KL mice for 6 weeks, mice were treated with KRA-533 (20 mg/kg/d) for 8 weeks (n=6 each group). Survival of mice was calculated up to 8 weeks before euthanization in the control group versus the KRA-533 treatment group.
It is reported that the co-occurrence of KRAS and LKB1(STK11) mutations could label a more aggressive molecular subtype of NSCLC. Around half of KRAS-mutant lung cancer patients also carry LKB1 mutations, therefore, it will be important to test whether KRA-533 is also effective for the treatment of KRAS-mutant lung cancers with mutation or loss. LSL-KRASG12D LKB1fl/fl (KL) mice were generated by intercrossing B6.129S4-Krastm3Tyj/J (KRASG12D) and FVB; 129S6-Stk11tm1Rdp/Nci (LKB1) strains two generations and genotyped to confirm homozygosity for the LKB1 allele. These mice contain a KRASG12D LSL knock-in allele and a floxed allele of LKB1 (LKB1fl/fl). KRA-533 (20 mg/kg/d) or vehicle control was administered i.p. starting at 6 weeks post AdeCre delivery. After treatment for 8 weeks, mice were euthanized, and lung tumors were analyzed as described above.

KRAS G13D [4] = biological target: T2, KRAS G13D; assay: Thermal shift assay, purified KRAS G13D; format: binding; conditions: increasing concentrations
Experimental: Melting temperature (Tm) values of DMSO Ctrl and 15 μM of KRA-533 are shown.
as §2

KRAS G12C = KRAS G12C (Homo sapiens, UniProt P01116, G12C); assay: In vitro cell-free GDP-GTP exchange, KRAS G12C; format: biochemical; conditions: with GEF (RASGRP1) and GAP (RASA1), 25° C., 60 min
Experimental: as §1, §2

[5] = tested on: A549, H157, Calu-1 and H292 cells; assay: GFP-LC3 autophagosome quantification; format: cell-based, human; conditions: 48 h
Experimental: After 24 h, cells were treated with KRA-533 for 48 h. The percentages of LC3-GFP-transfected cells bearing LC3-GFP aggregates (LC3-FGPvac) were quantified as shown.
Activated KRAS can trigger cell death via apoptosis and autophagy-associated cell death in cancer cells. To test whether KRA-533- activated KRAS promotes apoptosis and autophagic cell death, A549, H157, Calu-1 and H292 cells were treated with increasing concentrations of KRA-533 for 48 h, followed by analysis of KRAS activity, apoptosis and autophagy. […] Autophagy was measured by analysis of LC3-I/LC3-II and p62 following treatment of cells with KRA-533. It is well known that p62 is an autophagy receptor or substrate that can be degraded by autophagy. In addition to LC3-II, p62 was analyzed as another autophagy marker. […] To further quantify the level of autophagy, a GFP-LC3 construct was used to indicate autophagosomes. After treatment with KRA-533, GFP-LC3 redistributed from a diffuse staining pattern in the cytoplasm and nucleus to a cytoplasmic punctate structure that specifically labels pre-autophagosomal and autophagosomal membranes (i.e. GFP-LC3 vac cells). […] These findings indicate that, in addition to apoptosis, KRA-533 can also induce autophagic cell death.

NSCLC cells = assay: MTS Cell Proliferation Colorimetric Assay; format: cell-based, human; conditions: 48 h
Source text: A library containing small molecules from the National Cancer Institute (NCI) was employed to dock the GTP/GDP binding pocket of KRAS (PDB ID code: 4EPT) using the University of California, San Francisco (UCSF) DOCK 6.1 program suite. The small molecules were ranked according to their energy scores. Top 500 small molecules with predicted binding energies were selected for screening of cytotoxicity in human lung cancer cells by sulforhodamine B (SRB) assay. […] This lead compound was named KRAS agonist-533 (KRA-533) (FIG. 1A). To test whether KRA-533 regulates KRAS activity in lung cancer cells, human lung cancer cell lines with or without KRAS mutation were treated with KRA-533 (10 μM) for 48 h. […] Cell proliferation was also measured following treatment of cells for 48 h using MTS Cell Proliferation Colorimetric Assay Kit.

With `O=C(CBr)NCCCCc1ccc(C(=O)O)cc1` [KRA-533, 4-(4-(2-bromoacetamido)butyl)benzoic acid] the MTD ([1]; mouse, in vivo, ip, Nu/Nu nude mice) was 300 to 400 mg/kg, the “Alanine transaminase (ALT)” value ([1]; single dose of 400 mg/kg) was “significantly elevated” and the “aspartate transaminase (AST)” value ([1]; single dose of 400 mg/kg) was “significantly elevated”. For the same molecule, the “blood urea nitrogen (BUN)” value ([1]; single dose of 400 mg/kg) was “significantly elevated”, the “death of mice (time)” value ([1]; single dose of 400 mg/kg) was 8 days and the “weight loss or other toxicities (hematologic, liver and kidney function)” value ([1]; single dose of 150 or 300 mg/kg i.p.) was “did not cause weight loss or other toxicities”. For the same molecule, the “KRAS activity (liquid scintillation), KRAS G12D” value (KRAS G12D) was “further enhanced the activities of active KRAS mutants”, the “binding (thermal shift), KRAS K117A” value (KRAS K117A) was “failed to bind” and the “KRAS activity (liquid scintillation), KRAS G13D” value (KRAS G13D [2]) was “further enhanced the activities of active KRAS mutants”. The tumor growth ([3]; 20 mg/kg/d i.p. from 6 weeks post AdeCre, 8 weeks) was “significantly suppressed tumor growth”, the survival ([3]; 20 mg/kg/d i.p., up to 8 weeks) was “prolonged survival” and the “melting temperature (Tm) / binding, KRAS G13D” value (KRAS G13D [4]) was “Dose dependent increases in melting temperature (Tm)”. The “KRAS activity (liquid scintillation), KRAS G12C” value (KRAS G12C) was “further enhanced the activities of active KRAS mutants”, the “percentage of GFP-LC3vac cells” value [5] was “enhanced the percentage of GFP-LC3vac cells in a dose-dependent manner” and the cell proliferation (NSCLC cells; various NSCLC cells) was “suppression of cell proliferation”. For the same molecule, the “sensitivity of cell proliferation, KRAS mutant cells versus H292” value (NSCLC cells; A549, H157, Calu-1 vs H292) was “more sensitive to KRA-533 than H292 cells without KRAS mutation”.
